Reference: patent US6458384B2, “Pharmaceutical with predetermined activity profile” (priority 2000, dated 2002)

Key:
[1] = Release According to USP (USP Paddle, 50 rpm), 0.1 N HCl then phosphate buffer pH 6.8; type: physicochemical; conditions: 0.1 N HCl 0-120 min, phosphate buffer pH 6.8 >120 min, 37° C.
Description: The term “release profile” refers to the pattern of release of the respective pharmacologically active substance over time, that is, the amount released over time. This may be measured either in vivo, e.g. indirectly by measuring the blood concentration, or preferably ex vivo, e.g. by the USP paddle method that allows for determination of the dissolution rate of the substance. […] Samples are withdrawn for determination of the amount of substance released in intervals of e.g. 30 or 60 min an analysed, e.g. spectrophotometrically, for example at 272 nm for caffeine, and/or using HPLC methods. A preferred method is described in the examples that may be used in analogy for other pharmaceuticals according to the invention. Preferred methods for analyzing blood or plasma levels of compounds are also described in the examples—analogous methods can be used for different active substances and are known int the art or easily derivable from the art. Where not indicated otherwise, percentages or other relative indications of amounts are given on a weight by weight (w:w) basis. The dissolution rate determination using the USP paddle apparatus has already been described above. The attrition rate of tablet cores for subsequent film-coating is preferably determined under standard conditions in a friabilator. The rate of attrition, i.e. the friability, is calculated. […] The crushing strength of tablets is determined in a tablet hardness tester (N=10). [table] [table] [table]

[2] = USP paddle test in phosphate buffer pH 6.8 of ethylcellulose-coated caffeine tablets; type: physicochemical
Description: The term “release profile” refers to the pattern of release of the respective pharmacologically active substance over time, that is, the amount released over time. This may be measured either in vivo, e.g. indirectly by measuring the blood concentration, or preferably ex vivo, e.g. by the USP paddle method that allows for determination of the dissolution rate of the substance. For example, a USP paddle apparatus operating at 37° C. and 50 rpm ist used and the preparations are tested in (e.g. 900 ml) artificial intestinal fluid, e.g. phosphate buffer pH 6.8; artificial gastric juice, e.g. 0.1 N HCl; or water. Samples are withdrawn for determination of the amount of substance released in intervals of e.g. 30 or 60 min an analysed, e.g. spectrophotometrically, for example at 272 nm for caffeine, and/or using HPLC methods.

## Cn1c(=O)c2c(ncn2C)n(C)c1=O [Caffeine]
[1]; Example 1 sachet formulation, 15 min
  Accumulated rel, Time (min) 15: 0.0%
[1]; Example 1 sachet formulation, 30 min
  Accumulated rel, Time (min) 30: 0.0%
[1]; Example 1 sachet formulation, 60 min
  Accumulated rel, Time (min) 60: 0.0%
[1]; Example 1 sachet formulation, 120 min
  Accumulated rel, Time (min) 120: 0.0%
[1]; Example 1 sachet formulation, 180 min
  Accumulated rel, Time (min) 180: 0.0%
[1]; Example 1 sachet formulation, 240 min
  Accumulated rel, Time (min) 240: 0.0%
[1]; Example 1 sachet formulation, 300 min
  Accumulated rel, Time (min) 300: 0.0%
[1]; Example 1 sachet formulation, 330 min
  Accumulated rel, Time (min) 330: 87.0%
[1]; Example 1 sachet formulation, 360 min
  Accumulated rel, Time (min) 360: 99.0%
[1]; Example 1 sachet formulation, 420 min
  Accumulated rel, Time (min) 420: 99.5%
[1]; Example 2 tablet formulation, 15 min
  Accumulated rel, Time (min) 15: 0.0%
[1]; Example 2 tablet formulation, 30 min
  Accumulated rel, Time (min) 30: 0.0%
[1]; Example 2 tablet formulation, 60 min
  Accumulated rel, Time (min) 60: 0.0%
[1]; Example 2 tablet formulation, 120 min
  Accumulated rel, Time (min) 120: 0.0%
[1]; Example 2 tablet formulation, 180 min
  Accumulated rel, Time (min) 180: 0.0%
[1]; Example 2 tablet formulation, 240 min
  Accumulated rel, Time (min) 240: 0.0%
[1]; Example 2 tablet formulation, 300 min
  Accumulated rel, Time (min) 300: 15.0%
[1]; Example 2 tablet formulation, 330 min
  Accumulated rel, Time (min) 330: 89.3%
[1]; Example 2 tablet formulation, 360 min
  Accumulated rel, Time (min) 360: 99.5%
[1]; Example 2 tablet formulation, 420 min
  Accumulated rel, Time (min) 420: 99.7%
[1]; Example 3 tablet formulation, 15 min
  Accumulated release, Time (min) 15: 0.0%
[1]; Example 3 tablet formulation, 30 min
  Accumulated release, Time (min) 30: 0.0%
[1]; Example 3 tablet formulation, 60 min
  Accumulated release, Time (min) 60: 0.0%
[1]; Example 3 tablet formulation, 120 min
  Accumulated release, Time (min) 120: 0.0%
[1]; Example 3 tablet formulation, 180 min
  Accumulated release, Time (min) 180: 0.0%
[1]; Example 3 tablet formulation, 240 min
  Accumulated release, Time (min) 240: 0.0%
[1]; Example 3 tablet formulation, 300 min
  Accumulated release, Time (min) 300: 5.3%
[1]; Example 3 tablet formulation, 330 min
  Accumulated release, Time (min) 330: 85.6%
[1]; Example 3 tablet formulation, 360 min
  Accumulated release, Time (min) 360: 99.0%
[1]; Example 3 tablet formulation, 420 min
  Accumulated release, Time (min) 420: 99.2%
[2]; Example 5 ethylcellulose-coated tablets, phosphate buffer pH 6.8, 5 out of six tested tablets
  time for releasing the complete amount of caffeine after release starts: ≤ 2 h
[2]; Example 5 test preparation: coated gelatine capsule with 6 caffeine tablets and 0.5 mg melatonin, stated from the properties of the tablets
  start of caffeine release after melatonin release: approximately 420 min
